Data set [1] relates to murine 3T3 Balb fibroblast cells. In words: CCK8 antiproliferation / cytotoxicity assay in 3T3 Balb fibroblasts. It is filed as cell-based. Particulars: CCK-8 assay, murine fibroblast 3T3 Balb cells. The protocol: (§1) The cytotoxic activity of these new synthesized isatin derivatives was evaluated by means of the CCK8 antiproliferation assay in vitro in two different cell lines: cancerous cervical HeLa and murine 3T3 Balb fibroblast cells. The latter cell line is typically used to analyze the potential toxicity of (nano)materials thanks to their sensitivity. […] It can be observed that fibroblast cells were more sensitive to the presence of isatin derivatives than the cancerous cells in general HeLa ones, probably related to the enhanced replication rate of the tumoral cells. Analysis of the experimental data shown in Figure 6 allowed the determination of IC50 values (see Table 3 and Table 4). […] [65, 66] Compounds 26 and 33 are, therefore, new promising hits for further development.
(§2) Cervical HeLa cancer cells and 3T3 mouse fibroblasts from Cell Biolabs (San Diego, CA, USA) were grown in standard culture conditions (5% CO2 at 37 °C) in DMEM supplemented with 10% (v/v) FBS, 2 mM L-glutamine, 1% (v/v) penicillin/streptomycin, 1 mM sodium pyruvate, and 0.1 mM MEM nonessential amino acids (NEAA).
(§3) Cytotoxicity of the synthesized isatin-based compounds was tested in vitro by means of the CCK-8 cytotoxicity assay. Cancerous cervical HeLa and 3T3 Balb fibroblasts cells were seeded into 96-well plates (1.0 × 10^4 cells/well) and grown for 24 h at an optical confluence of 80–90% under standard culture conditions in 100 μL growth medium. Bare cells were used as the negative control. After 24 h of incubation at 37 °C, 100 μL of NPs at 2.5 × 10^10 NP/mL in the corresponding cell culture medium were injected into the wells and incubated for 24 h and 48 h. After incubation, the culture medium was discarded, cells were washed with 10 mM PBS (pH 7.4) several times, and fresh culture medium (100 μL) containing 10 μL of CCK-8 reagent added to each well. After 2 h, the absorption at 450 nm of cell samples was measured with an UV-vis microplate absorbance reader (Bio-Rad model 689, USA). Cell viability (SR, survival rate) was calculated as follows: SR=Abssample/Absblank×100 where Abssample is the absorbance at 450 nm for cell samples, and Absblank is the absorbance corresponding to the sample controls without the particles.
(§4) For the determination of the half-maximal inhibitory concentration (IC50), a dose–response curve between the isatin derivatives’ concentrations and percent cell viability was plotted and fitted by means of a nonlinear least-squares fitting method (Microcal Origin 2021) to a four-parameter logistic equation: Y=min+((max−min)/1+10^((logIC50−X)×p)) where the original, %control or %survival data are represented by Y along their minimal (min) and maximal (max) values; the isatin derivative concentration is represented by X; IC50 is the concentration at 50% maximal value; and p is the slope factor.
(In general: Tetrazolium dyes change colour on reduction, which living cells bring about.)

Data set [2] has as its system cancerous cervical HeLa cells. Kind of data set: CCK8 antiproliferation / cytotoxicity assay in HeLa cells. The class given is cell-based, human. Particulars: for IC50: CCK-8 assay, human cervical cancer HeLa cells; for specificity for tumoral cells: HeLa versus 3T3 Balb fibroblasts. On the procedure:
as §1, §2, §3, §4

In another data set the test system is HBL-100 cell line. Details: method as in doi:10.1002/ajoc.202100684. The following applies: HBL-100 line; cited from earlier work.
The subject of another data set is HeLa cell line. The arrangement: method as in doi:10.1002/ajoc.202100684. Particulars: cited from earlier work.
The next data set concerns cervical tumors. The following applies: cited from earlier work.
The mark [3] stands for this setting: drugs used for recurrent and metastatic cervical cancer.
[4] abbreviates: Pt-based chemodrug, first line treatment of primary cervical tumors.

Consider 23 molecules from paper PMC9965165, “3D-Printing of Capsule Devices as Compartmentalization Tools for Supported Reagents in the Search of Antiproliferative Isatins” (Pharmaceuticals, 2023).

Read-outs that look alike come from different tables or passages of the source.

On to `CCCCN(C(=O)C(F)(F)F)C1(C(=O)NC(C)(C)C)C(=O)Nc2ccc(Br)cc21` (stereo not drawn) [Compound 19, 5-bromo-N-(tert-butyl)-3-(N-butyl-2,2,2-trifluoroacetamido)-2-oxoindoline-3-carboxamide], for which the melting point – broadly, the temperature of the solid-liquid transition – lay in the range of 198 to 200 °C. For the same molecule, inhibition in data set [1] (Mus musculus) was half-maximal at 7.8 ± 0.4 µM (IC50). Also, in data set [2] (Homo sapiens, HeLa), the IC50 (in general, the concentration at which inhibition is half-maximal) stood at 16.8 ± 1.7 µM.

The molecule `CCCCN(C(=O)CCl)C1(C(=O)NC(C)(C)C)C(=O)Nc2ccc(I)cc21` (stereo not drawn) [Compound 12, N-(tert-butyl)-3-(N-butyl-2-chloroacetamido)-5-iodo-2-oxoindoline-3-carboxamide] came in with a melting point of 108.5 to 109.7 °C. This molecule showed an IC50 in data set [1] (Mus musculus) of 1.3 ± 0.2 µM. Further, in data set [2], the “specificity for tumoral cells” value was “not showing fully specific toxic activity for cancerous cells”. Also, inhibition in data set [2] (Homo sapiens, HeLa) was half-maximal at 8.3 ± 0.8 µM (IC50). Also, the antiproliferative activity entry in the data set with HBL-100 cell line was “potent antiproliferative activity”. Besides, the antiproliferative activity entry with HeLa cell line is recorded as “potent antiproliferative activity”.

Molecule `CCOC(=O)Cn1cc(CN2C(=O)C(=O)c3cc(I)ccc32)nn1` [Compound 27] yielded a melting point of 158 to 159 °C. Further, in data set [1] (Mus musculus), the IC50 is 7.3 ± 0.7 µM. In data set [2] (Homo sapiens, HeLa), this molecule registered an IC50 of 66.9 ± 8.9 µM.

As to `CCCCN(C(=O)C(F)(F)F)C1(C(=O)NC(C)(C)C)C(=O)Nc2ccc(I)cc21` (stereo not drawn) [Compound 17, N-(tert-butyl)-3-(N-butyl-2,2,2-trifluoroacetamido)-5-iodo-2-oxoindoline-3-carboxamide], the melting point was 204 to 205 °C. Further, the IC50 in data set [1] (Mus musculus) stood at 7.2 ± 0.5 µM. Further, the IC50 in data set [2] (Homo sapiens, HeLa) amounted to 33 ± 1.4 µM.

As to `COC(=O)/C=C/c1ccc2c(c1)C(=O)C(=O)N2Cc1ccccc1` [Compound 31], the IC50 in data set [1] (Mus musculus) is 3.5 ± 0.8 µM; in data set [2], 8.8 ± 1.1 µM; in data set [2] (Homo sapiens, HeLa) it was 6.8 µM. Further, in data set [2], the “specificity for tumoral cells” value is listed as “not showing fully specific toxic activity for cancerous cells”.

`COC(=O)/C=C/c1ccc2c(c1)C(=O)C(=O)N2Cc1ccc(I)cc1` [Compound 32, methyl (E)-3-(1-(4-iodobenzyl)-2,3-dioxoindolin-5-yl)acrylate] yielded a melting point of 228 to 230 °C. Also, in data set [1] (Mus musculus), the IC50 is 32.1 ± 3.4 µM. For the same molecule, inhibition in data set [2] (Homo sapiens, HeLa) was half-maximal at 10.8 ± 0.9 µM (IC50).

Take `CCCCN(C(=O)C(F)(F)F)C1(C(=O)NC2CCCCC2)C(=O)Nc2ccc(Br)cc21` (stereo not drawn) [Compound 15, 5-bromo-3-(N-butyl-2,2,2-trifluoroacetamido)-N-cyclohexyl-2-oxoindoline-3-carboxamide]: the melting point was 209 to 210 °C. The molecule further showed an IC50 in data set [1] (Mus musculus) of 28.3 ± 1.7 µM. Moreover, the IC50 in data set [2] (Homo sapiens, HeLa) came to 47.7 ± 1.2 µM.

The molecule `CCCCN(C(=O)CCl)C1(C(=O)NC(C)(C)C)C(=O)Nc2ccc([N+](=O)[O-])cc21` (stereo not drawn) [Compound 13, N-(tert-butyl)-3-(N-butyl-2-chloroacetamido)-5-nitro-2-oxoindoline-3-carboxamide] yielded a melting point of 179.5 to 179.8 °C. This molecule gave an IC50 in data set [1] (Mus musculus) of 4.8 ± 0.9 µM. In addition, in data set [2] (Homo sapiens, HeLa), the half-inhibitory concentration (IC50) is 26.9 ± 1 µM.

`CCCCN(C(=O)C(F)(F)F)C1(C(=O)NC2CCCCC2)C(=O)Nc2ccc([N+](=O)[O-])cc21` (stereo not drawn) [Compound 21, 3-(N-butyl-2,2,2-trifluoroacetamido)-N-cyclohexyl-5-nitro-2-oxoindoline-3-carboxamide] showed a melting point of 200 to 202 °C. In data set [1] (Mus musculus), this molecule gave an IC50 of 17 ± 0.7 µM. The IC50 in data set [2] (Homo sapiens, HeLa) amounted to 12.4 ± 0.7 µM.

Turning to `CC[C@@]1(O)C(=O)OCc2c1cc1n(c2=O)Cc2cc3c(CN(C)C)c(O)ccc3nc2-1` [topotecan], the IC50 with cervical tumors (setting [3]) is 26 µM.

With `CCCCN(C(=O)CCl)C1(C(=O)NC(C)(C)C)C(=O)Nc2c(Cl)cc(Cl)cc21` (stereo not drawn) [Compound 14, N-(tert-butyl)-3-(N-butyl-2-chloroacetamido)-5,7-dichloro-2-oxoindoline-3-carboxamide], the melting point lay within 125 to 126 °C. Further, the IC50 in data set [1] (Mus musculus) came to 1.5 ± 0.3 µM. This molecule came in with an IC50 in data set [2] (Homo sapiens, HeLa) of 14.1 ± 0.3 µM.

With `O=C1C(=O)N(Cc2cn(Cc3ccccc3)nn2)c2ccc(I)cc21` [Compound 26], the IC50 in data set [1] (Mus musculus) came out at 21.5 ± 2 µM; in data set [2] (Homo sapiens, HeLa), 2.5 ± 0.4 µM. In addition, in data set [2], the “specificity for tumoral cells” value is listed as “high specificity for tumoral cells”.

`CCCCN(C(=O)CCl)C1(C(=O)NC2CCCCC2)C(=O)Nc2ccc(Br)cc21` (stereo not drawn) [Compound 22, 5-bromo-3-(N-butyl-2-chloroacetamido)-N-cyclohexyl-2-oxoindoline-3-carboxamide] returned a melting point of 190.2 to 190.4 °C. In data set [1] (Mus musculus), this molecule returned an IC50 of 0.12 ± 0.01 µM. Besides, in data set [2] (Homo sapiens, HeLa), the IC50 turned out to be 27 ± 0.8 µM.

With `CCCCN(C(=O)C(F)(F)F)C1(C(=O)NC(C)(C)C)C(=O)Nc2ccc([N+](=O)[O-])cc21` (stereo not drawn) [Compound 20, N-(tert-butyl)-3-(N-butyl-2,2,2-trifluoroacetamido)-5-nitro-2-oxoindoline-3-carboxamide], the melting point fell in the range of 178 to 180 °C. In addition, the IC50 in data set [1] (Mus musculus) was 25 ± 1.9 µM. Also, the IC50 in data set [2] (Homo sapiens, HeLa) came to 26 ± 1.9 µM.

In the case of `CCCCN(C(=O)CCl)C1(C(=O)NC(C)(C)C)C(=O)Nc2ccc(Br)cc21` (stereo not drawn) [Compound 16, 5-Bromo-N-(tert-butyl)-3-(N-butyl-2-chloroacetamido)-2-oxoindoline-3-carboxamide], the melting point lay within 180 to 182 °C. Also, the IC50 in data set [1] (Mus musculus) was 1.5 ± 0.8 µM. The IC50 in data set [2] (Homo sapiens, HeLa) worked out at 17.9 ± 1.3 µM.

On to `COC(=O)/C=C/c1ccc2c(c1)C(=O)C(=O)N2CCC(=O)OC` [Compound 30, methyl (E)-3-(1-(3-methoxy-3-oxopropyl)-2,3-dioxoindolin-5-yl)acrylate], for which the melting point was 131 to 132 °C. Further, in data set [1] (Mus musculus), half-maximal inhibition (IC50) was put at 42.1 ± 2.7 µM. Moreover, in data set [2], the “specificity for tumoral cells” value is given as “not showing fully specific toxic activity for cancerous cells”. In data set [2] (Homo sapiens, HeLa), the midpoint of inhibition, the IC50, lay at 9.3 ± 0.8 µM.

Consider `N.N.O=C([O-])C1(C(=O)[O-])CCC1.[Pt+2]` [carboplatin], for which, in the data set on cervical tumors (setting [4]), the IC50 was 1000 µM.

`O=C1C(=O)N(Cc2cn(Cc3ccccc3)nn2)c2ccccc21` [Compound 25]: the melting point lay within 175 to 177 °C. The midpoint of inhibition in data set [1] (Mus musculus), the IC50, lay at 100 ± 3.1 µM. In data set [2] (Homo sapiens, HeLa), this molecule yielded an IC50 of 13.9 ± 4.5 µM.

As for `CC(=O)O[C@H]1C(=O)[C@@]2(C)[C@H]([C@H](OC(=O)c3ccccc3)[C@]3(O)C[C@H](OC(=O)[C@H](O)[C@@H](NC(=O)c4ccccc4)c4ccccc4)C(C)=C1C3(C)C)[C@]1(OC(C)=O)CO[C@@H]1C[C@@H]2O` [paclitaxel], the IC50 in the data set with cervical tumors (setting [3]) is 21 µM.

For the molecule “N-(tert-butyl)-3-(N-butyl-2-chloroacetamido)-1-methyl-2-oxoindoline-3-carboxamide [Compound 11]”, the IC50 in data set [1] was found to be 7.3 ± 0.7 µM; in data set [2] it was 40.1 ± 1.5 µM.

`COC(=O)/C=C/c1ccc(CN2C(=O)C(=O)c3cc(/C=C/C(=O)OC)ccc32)cc1` [Compound 33, methyl (E)-3-(4-((5-((E)-3-methoxy-3-oxoprop-1-en-1-yl)-2,3-dioxoindolin-1-yl)methyl)phenyl)acrylate] gave a melting point of 188 to 190 °C. The IC50 in data set [1] (Mus musculus) was determined as 12.6 ± 0.9 µM. The “specificity for tumoral cells” value in data set [2] is reported as “high specificity for tumoral cells”. Half-maximal inhibition in data set [2] (Homo sapiens, HeLa) (IC50) was put at 1 ± 0.05 µM.

`N.N.[Cl][Pt][Cl]` [cisplatin]: the IC50 in the data set with cervical tumors (setting [4]) was 15 µM.

For `CCCCN(C(=O)C(F)(F)F)C1(C(=O)NC2CCCCC2)C(=O)Nc2ccc(I)cc21` (stereo not drawn) [Compound 18, 3-(N-butyl-2,2,2-trifluoroacetamido)-N-cyclohexyl-5-iodo-2-oxoindoline-3-carboxamide], the melting point is 218 to 220 °C. In data set [1] (Mus musculus), this molecule returned an IC50 of 8.5 ± 0.7 µM. The same molecule returned an IC50 in data set [2] (Homo sapiens, HeLa) of 6.8 ± 0.5 µM.
